Test results taken from ChEMBL document CHEMBL1122681, “(Acylaryloxy)acetic acid diuretics. 5. [(2-Alkyl- and 2,2-disubstituted-1,3-dioxo-5-indanyl)oxy]acetic acids” (J Med Chem, 1984).

Experiments:
[1] = tested on: Canis familiaris; assay: Compound was evaluated for diuretic activity, administered orally in female mongrel dogs (5 mg/kg) measured as milliequivalents of Cl-; format: functional, Canis lupus familiaris, Urine
[2] = tested on: Rattus norvegicus; assay: Compound was evaluated for diuretic activity administered orally in female rats measured as milliequivalents of Cl-+x 100 / cage at 27 mg/kg; format: functional, Urine; conditions: route oral
[3] = volume of urine at 81 mg/kg; format: ADME, organism-based; parameters: dose 81 mg/kg; conditions: in vivo
[4] = volume of urine at 9 mg/kg; format: ADME, organism-based; parameters: dose 9 mg/kg; conditions: in vivo
[5] = tested on: Pan troglodytes; assay: Compound was evaluated for diuretic activity in chimpanzee measured as increase in the number of microequivalents of Cl- electrolyte/min at 5 mg/kg; format: functional, Urine
[6] = tested on: Rattus norvegicus; assay: Compound was evaluated for diuretic activity administered orally in female rats measured as milliequivalents of Na+x 100 / cage at 3 mg/kg; format: functional, Urine; conditions: route oral
[7] = tested on: Pan troglodytes; assay: Compound was evaluated for diuretic activity in chimpanzee measured as clearance of […] and urate after peroral administration of 5 mg/kg; format: functional, Urine; conditions: route oral
[8] = tested on: Rattus norvegicus; assay: Compound was evaluated for diuretic activity administered orally in female rats measured as milliequivalents of Na+x 100 / cage at 81 mg/kg; format: functional, Urine; conditions: route oral
[9] = tested on: Canis familiaris; assay: Compound was evaluated for diuretic activity, in female mongrel dogs by measuring amount of K+ in urine after iv administration of 5 mg/kg (control/compound treatment results) Control = 11; format: functional, Canis lupus familiaris
[10] = tested on: Pan troglodytes; assay: Compound was evaluated for diuretic activity in chimpanzee measured as increase in the number of microequivalents of Cl- electrolyte/min at 1 mg/kg; format: functional, Urine
[11] = tested on: Rattus norvegicus; assay: Compound was evaluated for diuretic activity administered orally in female rats measured as milliequivalents of Cl-x 100 / cage at 3 mg/kg; format: functional, Urine; conditions: route oral
[12] = tested on: Rattus norvegicus; assay: Compound was evaluated for diuretic activity administered orally in female rats measured as milliequivalents of Cl-x 100 / cage at 9 mg/kg; format: functional, Urine; conditions: route oral
[13] = tested on: Pan troglodytes; assay: Compound was evaluated for diuretic activity in chimpanzee measured as increase in volume of urine at 5 mg/kg; format: functional
[14] = tested on: Pan troglodytes; assay: Compound was evaluated for diuretic activity in chimpanzee measured as increase in the number of microequivalents of K+ /min at 5 mg/kg; format: functional, Urine
[15] = tested on: Canis familiaris; assay: Compound was evaluated for diuretic activity, administered orally in female mongrel dogs (5 mg/kg) measured as milliequivalents of K; format: functional, Canis lupus familiaris, Urine
[16] = tested on: Rattus norvegicus; assay: Compound was evaluated for diuretic activity administered orally in female rats measured as milliequivalents of K+x 100 / cage at 9 mg/kg; format: functional, Urine; conditions: route oral
[17] = tested on: Canis familiaris; assay: Compound was evaluated for diuretic activity, in female mongrel dogs by measuring amount of Na+ in urine after iv administration of 5 mg/kg (control/compound treatment results) Control = 107; format: functional, Canis lupus familiaris
[18] = volume of urine at 27 mg/kg; format: ADME, organism-based; parameters: dose 27 mg/kg; conditions: in vivo
[19] = tested on: Rattus norvegicus; assay: Compound was evaluated for diuretic activity administered orally in female rats measured as milliequivalents of K+x 100 / cage at 81 mg/kg; format: functional, Urine; conditions: route oral
[20] = organism: Canis familiaris; assay: volume of urine in dog; format: ADME, organism-based, Canis lupus familiaris; conditions: in vivo
[21] = tested on: Pan troglodytes; assay: Compound was evaluated for diuretic activity in chimpanzee measured as clearance of […] and urate after intra venous administration of 5 mg/kg.; format: functional, Urine
[22] = tested on: Pan troglodytes; assay: Compound was evaluated for diuretic activity in chimpanzee measured as increase in the number of microequivalents of K+ /min at 1 mg/kg; format: functional, Urine
[23] = tested on: Pan troglodytes; assay: Compound was evaluated for diuretic activity in chimpanzee measured as increase in the number of microequivalents of Na+ /min at 1 mg/kg; format: functional, Urine
[24] = tested on: Rattus norvegicus; assay: Compound was evaluated for diuretic activity administered orally in female rats measured as milliequivalents of Na+x 100 / cage at 27 mg/kg; format: functional, Urine; conditions: route oral
[25] = tested on: Rattus norvegicus; assay: Compound was evaluated for diuretic activity administered orally in female rats measured as milliequivalents of Cl-x 100 / cage at 81 mg/kg; format: functional, Urine; conditions: route oral
[26] = tested on: Pan troglodytes; assay: Compound was evaluated for diuretic activity in chimpanzee measured as increase in volume of urine at 1 mg/kg; format: functional
[27] = tested on: Canis familiaris; assay: Compound was evaluated for diuretic activity, in female mongrel dogs by measuring volume of urine, after iv administration of 5 mg/kg (control/compound treatment results) Control = 2; format: ADME, organism-based, Canis lupus familiaris; parameters: dose 5 mg/kg, route intravenous; conditions: dog, in vivo
[28] = volume of urine at 3 mg/kg; format: ADME, organism-based; parameters: dose 3 mg/kg; conditions: in vivo
[29] = tested on: Canis familiaris; assay: Compound was evaluated for diuretic activity, in female mongrel dogs by measuring amount of Cl- in urine after iv administration of 5 mg/kg (control/compound treatment results) Control = 62; format: functional, Canis lupus familiaris
[30] = tested on: Rattus norvegicus; assay: Compound was evaluated for diuretic activity administered orally in female rats measured as milliequivalents of K+x 100 / cage at 3 mg/kg; format: functional, Urine; conditions: route oral
[31] = tested on: Pan troglodytes; assay: Compound was evaluated for diuretic activity in chimpanzee measured as increase in the number of microequivalents of Na+ /min at 5 mg/kg; format: functional, Urine
[32] = tested on: Rattus norvegicus; assay: Compound was evaluated for diuretic activity administered orally in female rats measured as milliequivalents of Na+x 100 / cage at 9 mg/kg; format: functional, Urine; conditions: route oral
[33] = tested on: Rattus norvegicus; assay: Compound was evaluated for diuretic activity administered orally in female rats measured as milliequivalents of K+x 100 / cage at 27 mg/kg; format: functional, Urine; conditions: route oral
[34] = tested on: Canis familiaris; assay: Compound was evaluated for diuretic activity, administered orally in female mongrel dogs (5 mg/kg) measured as milliequivalents of Na; format: functional, Canis lupus familiaris, Urine

CC1(c2ccccc2)Cc2cc(OCC(=O)O)c(Cl)c(Cl)c2C1=O (centres undefined) [INDACRINONE]
Activity [1]: 26
Activity [2]: 223
Urine volume [3]: 35 mL
Urine volume [4]: 29 mL
Increase [5]: 554
Activity [6]: 86
Delta C urate / delta C insulin [7]: 0.332
Activity [8]: 189
Activity [9]: 62 u equiv min-1
Increase [10]: 2624
Activity [11]: 85
Activity [12]: 163
Increase in volume [13]: 3.6 mL/min
Increase [14]: 53
Activity [15]: 2.2
PActivity [16]: 50
Activity [17]: 920 u equiv min-1
Urine volume [18]: 31 mL
Activity [19]: 85
Urine volume [20]: 267 mL
Delta C urate / delta C insulin [21]: 0.55
Increase [22]: 171
Increase [23]: 2383
Activity [24]: 129
Activity [25]: 303
Increase in volume [26]: 14.8 mL/min
Urine volume [27]: 8 mL/min
Urine volume [28]: 28 mL
Activity [29]: 1010 u equiv min-1
Activity [30]: 32
Increase [31]: 409
Activity [32]: 97
Activity [33]: 61
Activity [34]: 12
